Results: patent US6855843B2, “Inhibitors of α4 mediated cell adhesion” (Tanabe Seiyaku Co., Ltd., priority 1998, dated 2005)

target: T1, α4β7 (adhesion of RPMI cells to CS-1) (Homo sapiens, UniProt P13612+P26010); assay: RPMI-CS-1 cell adhesion assay; assay type: cell-based; settings: adhesion of RPMI B-cell line (expresses α4β7) to CS-1 peptide coated microwells; read-out: RPMI-CS-1 IC50 value range
T1 construct: endogenous in cells
T1 sequence (P13612 34-1032): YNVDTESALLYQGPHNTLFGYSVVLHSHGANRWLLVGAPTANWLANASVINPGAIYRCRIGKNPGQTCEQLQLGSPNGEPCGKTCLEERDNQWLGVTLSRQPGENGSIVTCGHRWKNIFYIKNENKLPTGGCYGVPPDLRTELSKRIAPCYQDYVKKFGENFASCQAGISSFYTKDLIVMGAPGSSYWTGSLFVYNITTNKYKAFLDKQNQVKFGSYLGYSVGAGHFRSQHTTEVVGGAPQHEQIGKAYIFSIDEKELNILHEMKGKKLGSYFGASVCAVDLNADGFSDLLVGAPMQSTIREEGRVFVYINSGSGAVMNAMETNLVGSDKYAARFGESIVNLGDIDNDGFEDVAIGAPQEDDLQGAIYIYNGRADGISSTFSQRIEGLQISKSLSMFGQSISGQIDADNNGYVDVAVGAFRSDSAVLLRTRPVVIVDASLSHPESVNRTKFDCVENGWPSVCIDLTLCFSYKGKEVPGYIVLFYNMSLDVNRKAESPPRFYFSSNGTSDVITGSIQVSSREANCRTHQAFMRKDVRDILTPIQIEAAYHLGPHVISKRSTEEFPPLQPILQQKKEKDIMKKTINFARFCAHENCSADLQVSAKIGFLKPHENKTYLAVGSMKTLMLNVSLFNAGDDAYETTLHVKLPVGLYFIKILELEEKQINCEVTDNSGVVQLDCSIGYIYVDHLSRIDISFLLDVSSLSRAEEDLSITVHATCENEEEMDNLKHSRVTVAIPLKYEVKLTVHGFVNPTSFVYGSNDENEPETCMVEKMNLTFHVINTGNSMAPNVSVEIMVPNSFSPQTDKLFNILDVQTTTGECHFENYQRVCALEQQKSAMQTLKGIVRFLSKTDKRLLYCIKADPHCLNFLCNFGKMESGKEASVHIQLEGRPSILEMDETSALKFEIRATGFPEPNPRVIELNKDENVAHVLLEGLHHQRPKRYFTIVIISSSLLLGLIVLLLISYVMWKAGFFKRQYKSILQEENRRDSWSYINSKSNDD
T1 sequence (P26010 20-798): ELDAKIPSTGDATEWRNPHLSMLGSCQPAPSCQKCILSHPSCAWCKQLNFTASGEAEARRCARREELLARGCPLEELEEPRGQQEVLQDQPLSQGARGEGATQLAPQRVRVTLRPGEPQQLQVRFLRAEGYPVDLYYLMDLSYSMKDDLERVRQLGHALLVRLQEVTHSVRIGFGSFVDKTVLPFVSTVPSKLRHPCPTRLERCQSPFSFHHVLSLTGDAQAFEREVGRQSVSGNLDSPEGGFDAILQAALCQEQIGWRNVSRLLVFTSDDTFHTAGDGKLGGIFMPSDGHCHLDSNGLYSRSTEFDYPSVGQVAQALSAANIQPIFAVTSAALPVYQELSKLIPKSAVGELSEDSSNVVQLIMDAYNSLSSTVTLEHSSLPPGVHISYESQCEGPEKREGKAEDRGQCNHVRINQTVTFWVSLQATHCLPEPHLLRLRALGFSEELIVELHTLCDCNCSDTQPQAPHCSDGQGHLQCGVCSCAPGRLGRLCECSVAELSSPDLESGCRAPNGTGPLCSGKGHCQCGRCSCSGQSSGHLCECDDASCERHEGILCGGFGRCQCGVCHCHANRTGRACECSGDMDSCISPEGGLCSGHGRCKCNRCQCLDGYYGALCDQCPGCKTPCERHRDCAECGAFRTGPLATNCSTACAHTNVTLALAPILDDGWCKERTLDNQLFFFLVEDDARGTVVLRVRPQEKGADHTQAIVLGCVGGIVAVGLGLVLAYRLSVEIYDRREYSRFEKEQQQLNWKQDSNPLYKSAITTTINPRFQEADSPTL

IC50 [nM] | Molecule
< 300 | COc1cc(CN2CCS(=O)(=O)CC2)cc(OC)c1-c1ccc(C[C@H](NC(=O)c2c(Cl)cccc2Cl)C(=O)O)cc1 [Example 263A, N-(2,6-dichlorobenzoyl)-4-[2,6-dimethoxy-4-(thiomorpholinomethyl)phenyl]-L-phenylalanine S,S-dioxide]
> 5000 | COc1cccc(OC)c1-c1ccc(C[C@H](NC(=O)c2c(Cl)cccc2Cl)C(=O)NS(C)(=O)=O)cc1 [Example 267, N-(2,6-Dichlorobenzoyl)-4-(2,6-dimethoxyphenyl)-L-phenylalanine N-(methylsulfonyl)amide]
1000 to 5000 | COc1cccc(OC)c1-c1ccc(C[C@H](NC(=O)c2c(Cl)cccc2Cl)C(=O)NO)cc1 [Example 268, N-(2,6-dichlorobenzoyl)-4-(2,6-dimethoxyphenyl)-L-phenylalanine N-hydroxyamide]
> 5000 | COc1ccccc1-c1ccc(C[C@H](NC(=O)c2c(Cl)cccc2Cl)C(=O)NO)cc1 [Example 269, N-(2,6-Dichlorobenzoyl)-4-(2-methoxyphenyl)-L-phenylalanine N-hydroxyamide]
< 300 | COc1cccc(OC)c1-c1ccc(C[C@H](NC(=O)c2c(Cl)cccc2Cl)c2nnn[nH]2)cc1 [Example 270, (1S)-N-(2,6-Dichlorobenzoyl)-2-[4-(2,6-dimethoxyphenyl)phenyl]-1-(1H-tetrazol-5-yl) ethylamine]
1000 to 5000 | COc1cccc(OC)c1-c1ccc(C[C@H](NC(=O)c2c(Cl)cccc2Cl)C(=O)OCc2cccnc2)cc1 [Example 273, N-(2,6-Dichlorobenzoyl)-4-(2,6-dimethoxyphenyl)-L-phenylalanine 3-pyridylmethyl ester]
1000 to 5000 | COc1cccc(OC)c1-c1ccc(C[C@H](NC(=O)c2c(Cl)cccc2Cl)C(=O)OCc2ccncc2)cc1 [Example 274, N-(2,6-Dichlorobenzoyl)-4-(2,6-dimethoxyphenyl)-L-phenylalanine 4-pyridylmethyl ester]
> 5000 | COc1cccc(OC)c1-c1ccc(C[C@H](NC(=O)c2c(Cl)cccc2Cl)C(=O)OC(C)C)cc1 [Example 275, N-(2,6-Dichlorobenzoyl)-4-(2,6-dimethoxyphenyl)-L-phenylalanine i-propyl ester]
> 5000 | COc1cccc(OC)c1-c1ccc(C[C@H](NC(=O)c2c(Cl)cccc2Cl)C(=O)OC2CCCCC2)cc1 [Example 276, N-(2,6-Dichlorobenzoyl)-4-(2,6-dimethoxyphenyl)-L-phenylalanine cyclohexyl ester]
< 300 | COc1cccc(OC)c1-c1ccc(C[C@H](NC(=O)c2c(C)cccc2Cl)C(=O)O)cc1 [Example 277]
< 300 | COc1cccc(OC)c1-c1ccc(C[C@H](NC(=O)c2c(F)cc(F)cc2F)C(=O)O)cc1 [Example 279]
< 300 | COc1cccc(OC)c1-c1ccc(C[C@H](NC(=O)c2ccccc2C(C)C)C(=O)O)cc1 [Example 280]
1000 to 5000 | COc1cccc(OC)c1-c1ccc(C[C@H](NC(=O)c2cccc(C)c2)C(=O)O)cc1 [Example 281]
1000 to 5000 | COc1cccc(OC)c1-c1ccc(C[C@H](NC(=O)c2cccc(C#N)c2)C(=O)O)cc1 [Example 282]
1000 to 5000 | COc1cccc(OC)c1-c1ccc(C[C@H](NC(=O)c2cccc([N+](=O)[O-])c2)C(=O)O)cc1 [Example 284]
< 300 | COc1cccc(OC)c1-c1ccc(C[C@H](NC(=O)c2ccc(OC(C)C)cc2Cl)C(=O)O)cc1 [Example 285]
< 300 | CCCOc1ccc(C(=O)N[C@@H](Cc2ccc(-c3c(OC)cccc3OC)cc2)C(=O)O)c(Cl)c1 [Example 286]
1000 to 5000 | COc1ccccc1-c1ccc(C[C@H](NC(=O)c2ccc(-n3cccc3CO)cc2Cl)C(=O)O)cc1 [Example 291, N-[2-Chloro-4-(2-hydroxymethyl-1-pyrrolyl)benzoyl]-4-(2-methoxyphenyl)-L-phenylalanine]

IC50 [nM] | Molecule
300 to 1000 | COc1cccc(OC)c1-c1ccc(C[C@H](NC(=O)c2c(Cl)cccc2Cl)C(=O)O)cc1N1CCCC1=O [Example 300, N-(2,6-dichlorobenzoyl)-3-(2-oxo-1-pyrrolidinyl)-4-(2,6-dimethoxyphenyl)-L-phenylalaine]
< 300 | COc1cccc(OC)c1-c1ccc(C[C@H](NC(=O)c2c(Cl)cc(-c3ccn[nH]3)cc2Cl)C(=O)O)cc1 [Example 304, N-[4-(5-Pyrazolyl)-2,6-dichlorobenzoyl)-4-(2,6-dimethoxyphenyl)-L-phenylalanine]
< 300 | COc1cccc(OC)c1-c1ccc(C[C@H](NC(=O)c2c(Cl)cc(-c3c(C)noc3C)cc2Cl)C(=O)O)cc1 [Example 309]
< 300 | COc1cccc(OC)c1-c1ccc(C[C@H](NC(=O)c2c(Cl)cc(-c3cccnc3)cc2Cl)C(=O)O)cc1 [Example 311]
< 300 | COc1cccc(OC)c1-c1ccc(C[C@H](NC(=O)c2c(Cl)cc(-c3ccccn3)cc2Cl)C(=O)O)cc1 [Example 312]
< 300 | COc1cccc(OC)c1-c1ccc(C[C@H](NC(=O)c2c(Cl)cc(-c3cccs3)cc2Cl)C(=O)O)cc1 [Example 316]
< 300 | COc1ccc(Br)c(OC)c1-c1ccc(C[C@H](NC(=O)c2c(Cl)cccc2Cl)C(=O)O)cc1 [Example 322, N-(2,6-Dichlorobenzoyl)-4-(2,6-dimethoxy-3-bromophenyl)-L-phenylalanine]
1000 to 5000 | CC(=O)Nc1cc(C[C@H](NC(=O)c2c(Cl)cccc2Cl)C(=O)O)ccc1-c1ccccc1 [Example 343, N-(2,6-Dichlorobenzoyl)-3-acetylamino-4-phenyl-L-phenylalanine]
1000 to 5000 | CCOC(=O)Nc1cc(C[C@H](NC(=O)c2c(Cl)cccc2Cl)C(=O)O)ccc1-c1ccccc1 [Example 344]
300 to 1000 | CCOC(=O)Nc1cc(C[C@H](NC(=O)c2c(Cl)cccc2Cl)C(=O)O)ccc1-c1ccccc1OC [Example 345]
< 300 | COc1cc(O)cc(OC)c1-c1ccc(C[C@H](NC(=O)c2c(Cl)cccc2Cl)C(=O)O)cc1 [Example 346, N-(2,6-Dichlorobenzoyl)-4-(2,6-dimethoxy-4-hydroxyphenyl)-L-phenylalanine]
< 300 | C=CCOc1cc(OC)c(-c2ccc(C[C@H](NC(=O)c3c(Cl)cccc3Cl)C(=O)O)cc2)c(OC)c1 [Example 347]
< 300 | COc1cc(OCc2ccncc2)cc(OC)c1-c1ccc(C[C@H](NC(=O)c2c(Cl)cccc2Cl)C(=O)O)cc1 [Example 348]
< 300 | COc1cc(OCc2ccccn2)cc(OC)c1-c1ccc(C[C@H](NC(=O)c2c(Cl)cccc2Cl)C(=O)O)cc1 [Example 349]
< 300 | COc1cc(OCc2ccccc2)cc(OC)c1-c1ccc(C[C@H](NC(=O)c2c(Cl)cccc2Cl)C(=O)O)cc1 [Example 350]
< 300 | COc1ccccc1-c1ccc(C[C@H](NC(=O)c2c(Cl)cccc2Cl)C(=O)O)cc1C(C)=NO [Example 351, N-(2,6-Dichlorobenzoyl)-3-[1-(hydroxyimino)ethyl]-4-(2-methoxyphenyl)-L-phenylalanine]
< 300 | CCOC(=O)[C@H](Cc1ccc(-c2c(OC)cc(CN3CCN(C)CC3)cc2OC)cc1)NC(=O)c1c(F)cccc1F [Example 356]

Molecule | IC50 [nM]
N-(2,6-Dichlorobenzoyl)-4-(2,6-dicyanophenyl)-L-phenylalanine [Example 151] | < 300
N-(2,6-Dichlorobenzoyl)-4-(2,6-dimethoxyphenyl)-L-phenylalanine 2-(dimethylamino)ethyl ester [Example 271] | < 300
